Measured values from the NIST ThermoML archive (doi:10.1016/j.jct.2013.07.003).
Numbers after ± are expanded uncertainties.

Columns and labels:
[1] = relative permittivity at various frequencies (dimensionless); settings: 101 kPa, Liquid, Frequency=0.1 MHz, Coaxial cylinder capacitor
[2] = refractive index (Na D-line) (dimensionless); settings: 101.33 kPa, Liquid, Standard Abbe refractometry
[3] = 298.2 K; 101.33 kPa; Liquid; Vibrating tube method
[4] = refractive index (Na D-line) (dimensionless); xn = mol fraction of the nth substance listed; settings: 101 kPa, Liquid, Standard Abbe refractometry, x2 = 0
[5] = relative permittivity at various frequencies (dimensionless); xn = mol fraction of the nth substance listed; settings: 101 kPa, Liquid, Frequency=0.1 MHz, Coaxial cylinder capacitor, x2 = 0

Structure (SMILES)	relative permittivity ([1]; 298.2 K)	relative permittivity ([1]; 303.2 K)	relative permittivity ([1]; 308.2 K)	relative permittivity ([1]; 313.2 K)	relative permittivity ([1]; 318.2 K)	refractive index ([2]; 298.2 K)	refractive index ([2]; 303.2 K)	refractive index ([2]; 308.2 K)	refractive index ([2]; 313.2 K)	refractive index ([2]; 318.2 K)	mass density [3] [kg/m3]	refractive index ([4]; 298.2 K)	refractive index ([4]; 303.2 K)	refractive index ([4]; 308.2 K)	refractive index ([4]; 313.2 K)	refractive index ([4]; 318.2 K)	relative permittivity ([5]; 298.2 K)	relative permittivity ([5]; 303.2 K)	relative permittivity ([5]; 308.2 K)	relative permittivity ([5]; 313.2 K)	also measured
CC(O)CCO (stereo not drawn) [1,3-butanediol]	28.52 ± 0.04	27.66 ± 0.04	26.77 ± 0.04	25.98 ± 0.04	25.22 ± 0.04	1.4384 ± 0.0005	1.4371 ± 0.0005	1.4356 ± 0.0005	1.4341 ± 0.0005	1.4328 ± 0.0005	1001.2 ± 0.24										
C1COCCO1 [1,4-dioxane]	2.23 ± 0.02	2.22 ± 0.02	2.21 ± 0.02	2.2 ± 0.02	2.19 ± 0.02	1.4201 ± 0.0005	1.4174 ± 0.0005	1.4145 ± 0.0005	1.4118 ± 0.0005	1.4088 ± 0.0005	1027.89 ± 0.12										
C1COCCO1 [1,4-dioxane] + CC(O)CCO												1.4201 ± 0.0005	1.4174 ± 0.0005	1.4145 ± 0.0005	1.4118 ± 0.0005	1.4088 ± 0.0005	2.23 ± 0.02	2.22 ± 0.02	2.21 ± 0.02	2.2 ± 0.02	relative permittivity ([5]; 318.2 K): 2.19 ± 0.02
CCCCCCCCO [octan-1-ol]	9.81 ± 0.03	9.38 ± 0.03	8.94 ± 0.03	8.52 ± 0.03	8.11 ± 0.03	1.4276 ± 0.0005	1.4254 ± 0.0005	1.423 ± 0.0005	1.4205 ± 0.0005	1.4184 ± 0.0005	821.69 ± 0.24										
CCCCCCCCO [octan-1-ol] + CC(O)CCO												1.4276 ± 0.0005	1.4254 ± 0.0005	1.423 ± 0.0005	1.4205 ± 0.0005	1.4184 ± 0.0005	9.81 ± 0.03	9.38 ± 0.03	8.94 ± 0.03	8.52 ± 0.03	relative permittivity ([5]; 318.2 K): 8.11 ± 0.03
